Assay results taken from BindingDB's records for doi:10.7270/Q2Q52N1X (Vanderbilt Screening Center for GPCRs, Ion Channels and …, 2009).

Biological target: T1, Solute carrier family 12 member 5 (Homo sapiens, UniProt Q9H2X9)
T1 sequence (Q9H2X9 whole entry): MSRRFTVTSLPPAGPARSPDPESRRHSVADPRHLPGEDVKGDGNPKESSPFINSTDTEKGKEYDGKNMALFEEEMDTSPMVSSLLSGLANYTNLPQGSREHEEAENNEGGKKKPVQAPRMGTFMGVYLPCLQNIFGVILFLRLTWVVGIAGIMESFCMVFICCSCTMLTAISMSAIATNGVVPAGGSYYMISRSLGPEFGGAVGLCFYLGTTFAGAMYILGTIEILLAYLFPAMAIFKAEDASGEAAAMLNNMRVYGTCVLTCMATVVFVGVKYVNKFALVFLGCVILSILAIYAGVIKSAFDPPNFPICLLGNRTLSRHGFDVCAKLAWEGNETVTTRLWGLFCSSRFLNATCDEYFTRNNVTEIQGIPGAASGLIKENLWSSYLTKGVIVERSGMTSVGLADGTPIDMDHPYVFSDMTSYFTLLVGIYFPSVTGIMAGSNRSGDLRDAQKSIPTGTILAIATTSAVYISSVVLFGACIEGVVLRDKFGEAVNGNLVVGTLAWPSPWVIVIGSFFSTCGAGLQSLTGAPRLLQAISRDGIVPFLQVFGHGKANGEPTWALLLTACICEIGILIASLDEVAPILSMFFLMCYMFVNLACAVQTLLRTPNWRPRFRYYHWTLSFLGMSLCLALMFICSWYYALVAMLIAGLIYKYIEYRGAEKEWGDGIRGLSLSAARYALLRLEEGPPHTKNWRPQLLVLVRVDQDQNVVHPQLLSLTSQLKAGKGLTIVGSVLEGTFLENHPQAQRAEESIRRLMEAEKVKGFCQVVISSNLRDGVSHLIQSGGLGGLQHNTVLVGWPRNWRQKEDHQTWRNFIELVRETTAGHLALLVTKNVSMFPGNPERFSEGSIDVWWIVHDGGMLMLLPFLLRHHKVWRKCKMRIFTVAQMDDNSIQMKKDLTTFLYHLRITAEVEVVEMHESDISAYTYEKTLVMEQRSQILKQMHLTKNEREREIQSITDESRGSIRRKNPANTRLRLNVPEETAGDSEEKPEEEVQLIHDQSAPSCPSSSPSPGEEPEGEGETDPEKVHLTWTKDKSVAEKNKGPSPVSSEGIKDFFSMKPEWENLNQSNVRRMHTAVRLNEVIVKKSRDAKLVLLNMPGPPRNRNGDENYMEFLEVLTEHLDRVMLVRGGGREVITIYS
Assay: concentration-response of KCC2 transport modulators – cell-based, HEK293 KCC2, FluoZin-2 fluorescence, dose response (AID 1736)

Row | SMILES | EC50 [µM] | EC50 (inactive by the depositor's call) [µM]
1 | O=C(OCc1ccccn1)c1ccc(COc2ccccc2Cl)o1 [5-(2-Chloro-phenoxymethyl)-furan-2-carboxylic acid pyridin-2-ylmethyl ester] | 6.49 | 
2 | C=CCNc1oc(Cc2cccc3ccccc23)nc1C#N [2-(1-naphthalenylmethyl)-5-(prop-2-enylamino)-4-oxazolecarbonitrile] | 12.1 | 
3 | Cc1[nH]c2ccccc2c1Cc1nnc(S)o1 | 1.59 | 
4 | CN(C)S(=O)(=O)c1cccc(NC(=O)c2cc3c(cc2Cl)N2CCCCC=C2NS3(=O)=O)c1 [2-chloranyl-N-[3-(dimethylsulfamoyl)phenyl]-5,5-bis(oxidanylidene)-8,9,10,11-tetrahydro-7H-azepino[2,1-c][1,2,4]benzothiadiazine-3-carboxamide] | 0.0676 | 
5 | CCOc1[nH]n(-c2ccccc2)c(=O)c1C=Nc1ccc(F)cc1F [(4E)-4-[[[2,4-bis(fluoranyl)phenyl]amino]methylidene]-5-ethoxy-2-phenyl-pyrazol-3-one] | 0.0323 | 
6 | O=C(Cn1nnc2c(cnn2-c2ccccc2)c1=O)N1CCN(c2ccccc2F)CC1 [3-[2-[4-(2-fluorophenyl)-1-piperazinyl]-2-oxoethyl]-7-phenyl-4-pyrazolo[3,4-d]triazinone] | 15.6 | 
7 | CCCn1c(N)c(C(=O)CSc2nnc(Cc3ccccc3)o2)c(=O)n(C)c1=O [6-amino-3-methyl-5-[1-oxo-2-[[5-(phenylmethyl)-1,3,4-oxadiazol-2-yl]thio]ethyl]-1-propylpyrimidine-2,4-dione] | 0.00011 | 
8 | N#Cc1nc(Cc2cccc3ccccc23)oc1N1CCOCC1 [5-(4-morpholinyl)-2-(1-naphthalenylmethyl)-4-oxazolecarbonitrile] | 1.77 | 
9 | O=C(c1ccc(-c2ccccc2)cc1)C1CCCN(Cc2ccncc2)C1 (centres undefined) [(4-phenylphenyl)-[1-(4-pyridylmethyl)-3-piperidyl]methanone] | 7.52 | 
10 | O=C(c1cc2c(s1)-c1ccccc1OC2)N1CCC2(CC1)OCCO2 [1,4-dioxa-8-azaspiro[4.5]decan-8-yl(4H-thieno[3,2-c][1]benzopyran-2-yl)methanone] | 30.2 | 
11 | O=C(NC(=S)Nc1ccc2c(c1)OCO2)c1ccc(Cl)cc1 [1-Benzo[1,3]dioxol-5-yl-3-(4-chloro-benzoyl)-thiourea] |  | 0.0741
12 | O=C(NCCc1c[nH]c2ccccc12)c1cc(S(=O)(=O)N2CCCCC2)ccc1N1CCOCC1 [N-[2-(1H-indol-3-yl)ethyl]-2-morpholin-4-yl-5-piperidin-1-ylsulfonylbenzamide] | 20.1 | 
13 | COC(=O)Cc1[nH]n(-c2nc3ccccc3s2)c(=O)c1C(C)=Nc1ccc(Cl)cc1 [methyl 2-[(4E)-1-(1,3-benzothiazol-2-yl)-4-[1-[(4-chlorophenyl)amino]ethylidene]-5-oxidanylidene-pyrazol-3-yl]ethanoate] | 77.3 | 
14 | O=C(O)CC/C(=C\c1ccc(N2CCOCC2)c([N+](=O)[O-])c1)c1nc2ccccc2s1 [(E)-4-(1,3-benzothiazol-2-yl)-5-(4-morpholin-4-yl-3-nitro-phenyl)pent-4-enoic acid] | 82100 | 
15 | CCCCCN1C/C=C\C(c2ccc(OC)cc2)N(Cc2ccc(F)cc2)C(=O)C1 (centres undefined) [(6Z)-1-amyl-4-(4-fluorobenzyl)-5-(4-methoxyphenyl)-5,8-dihydro-2H-1,4-diazocin-3-one] | 7.86 | 
16 | CCc1ccc(Nc2nnc(SCc3cc(=O)n4ccsc4n3)s2)cc1 [7-[[5-(4-ethylanilino)-1,3,4-thiadiazol-2-yl]sulfanylmethyl]-[1,3]thiazolo[3,2-a]pyrimidin-5-one] | 0.281 | 
17 | CCC(Cc1ccccc1)NC(=O)CN(C)S(=O)(=O)c1ccc2c(c1)c(=O)n(C)c(=O)n2C (centres undefined) [2-[(1,3-dimethyl-2,4-dioxo-6-quinazolinyl)sulfonyl-methylamino]-N-(1-phenylbutan-2-yl)acetamide] | 2410 | 
18 | Cc1nn(-c2ccc(F)cc2)c(C)c1NS(=O)(=O)c1ccc(Cl)cc1 [4-chloranyl-N-[1-(4-fluorophenyl)-3,5-dimethyl-pyrazol-4-yl]benzenesulfonamide] | 112 | 
19 | O=C(CSc1ccc(-c2ccccc2)nn1)c1ccccc1 [1-phenyl-2-(6-phenylpyridazin-3-yl)sulfanyl-ethanone] | 0.862 | 
